Assay results as given in US4320141A, “Antitumor agent” (priority 1977, dated 1982).
Like-named read-outs stand apart in the source and are kept apart here.

Experiments:
[1] = tested on: experimental tumor developed on epithelial cells; settings: prophylaxis or therapy of experimental tumor; cited from earlier work
[2] = in vivo; cited from earlier work
[3] = Acute toxicity in mice (LD50); format: in vivo; settings: for LD50: mouse, in vivo
Excerpt: Acute toxicity in mice of α-tocopherol vitamin A acid ester which is the active ingredient of the antitumor agent of this invention is particularly low as shown below, even when any route of administration such as oral route, intraperitoneal route or intravenous injection is applied.

tumor [4] = experiment: Therapeutic effect on tumor (DMBA-induced, hairless mice); format: in vivo; settings: three weeks, counted on each animal
Experimental: On the back of hairless mice was coated 0.2% DMBA dissolved in olive oil with a brush three times a week for 2 months. After confirmation of development of tumor, test zone comprising groups of five mice was arranged indiscriminately. To these animals was administered α-tocopherol vitamin A acid ester either topically or orally and change of tumor was observed.
the back of animal twice a day with brush.

tumor [5] = experiment: Prophylactic effect on development of tumor (DMBA-initiated, croton oil-promoted, coated on depilated back); format: in vivo, ICR mice; settings: groups of 10 mice, 4 months
Excerpt: To groups of 10 ICR mice, was applied 0.2% acetone solution of a cancerigenic agent, dimethylbenzanthracene (abbreviated hereinafter as DMBA) by coating said solution on the depilated back of the mice once a day for two weeks. From one week after the final administration of DMBA, an acetone solution of. 0.06% croton oil and a lotion containing an acetone solution of 0.06% croton oil and the active ingredient according to the present invention were coated successively on the back once a day for 4 months.
The lotion used above was prepared according to the following process:
A desired amount of α-tocopherol vitamin A acid ester was dissolved in 10 g of ethyl alcohol together with 0.5 g of […] sorbitan monolaurate and 6 g of glycerin and purified water were added thereto to make up the total 100 g. The solution thus obtained was stirred thoroughly to give lotion.

[6] = 0.01% lotion, topical twice a day, control 5
[7] = 0.01% lotion, topical twice a day, control 8
[8] = 0.01% lotion, topical twice a day, control 17
[9] = 0.05% lotion, topical twice a day, control 5
[10] = 0.05% lotion, topical twice a day, control 8
[11] = 0.05% lotion, topical twice a day, control 17
[12] = 0.3% lotion, percutaneous, without croton oil
[13] = croton oil + 0.02% lotion, percutaneous, croton oil alone 10
[14] = croton oil + 0.3% lotion, percutaneous, croton oil alone 10
[15] = intravenous, read-out: LD50, intravenous injection
[16] = ip, intraperitoneal, read-out: LD50, intraperitoneal administration
[17] = oral, read-out: LD50, oral administration

SMILES: CC1=C(/C=C/C(C)=C/C=C/C(C)=C/C(=O)O)C(C)(C)CCC1 [Vitamin A acid, vitamin A acid, reference compound]
- Antitumor activity (in words) [1]: effective for prophylaxis of development or therapy of experimental tumor developed on epithelial cells
- Toxicity (in words) [2]: quite strongly toxic
- LD50, intraperitoneal administration ([3]; intraperitoneal): 150 mg/kg
- LD50, intravenous injection ([3]; intravenous): 92 mg/kg
- LD50, oral administration ([3]; oral): 780 mg/kg

SMILES: CC1=C(/C=C/C(C)=C/C=C/C(C)=C\C(=O)Oc2c(C)c(C)c3c(c2C)CCC(C)(CCCC(C)CCCC(C)CCCC(C)C)O3)C(C)(C)CCC1 (stereo not drawn) [α-tocopherol-13-cis-vitamin A acid ester]
- Average number of tumor, smaller than 2mm (tumor [4]; [6]): 8
- Average number of tumor, 5-2mm (tumor [4]; [7]): 3
- Average number of tumor, larger than 5mm (tumor [4]; [8]): 4
- Average number of tumor, smaller than 2mm (tumor [4]; [9]): 4
- Average number of tumor, 5-2mm (tumor [4]; [10]): 6
- Average number of tumor, larger than 5mm (tumor [4]; [11]): 2
- Number of animals in which tumor was developed (tumor [5]; [12]): 0
- Number of animals in which tumor was developed (tumor [5]; [13]): 4
- Number of animals in which tumor was developed (tumor [5]; [14]): 2
- LD50 [3, 15]: > 1000 mg/kg
- LD50 [3, 16]: > 10000 mg/kg
- LD50 [3, 17]: > 10000 mg/kg

SMILES: CC1=C(/C=C/C(C)=C/C=C/C(C)=C/C(=O)Oc2c(C)c(C)c3c(c2C)CCC(C)(CCCC(C)CCCC(C)CCCC(C)C)O3)C(C)(C)CCC1 (stereo not drawn) [α-tocopherol-trans-vitamin A acid ester]
- Average number of tumor, smaller than 2mm (tumor [4]; [6]): 8
- Average number of tumor, 5-2mm (tumor [4]; [7]): 5
- Average number of tumor, larger than 5mm (tumor [4]; [8]): 7
- Average number of tumor, smaller than 2mm (tumor [4]; [9]): 13
- Average number of tumor, 5-2mm (tumor [4]; [10]): 6
- Average number of tumor, larger than 5mm (tumor [4]; [11]): 1
- Average number of tumor, smaller than 2mm (tumor [4]; 200mg/kg, oral, control (topical) 5): 10
- Average number of tumor, 5-2mm (tumor [4]; 200mg/kg, oral, control (topical) 8): 6
- Average number of tumor, larger than 5mm (tumor [4]; 200mg/kg, oral, control (topical) 17): 4
- Average number of tumor, smaller than 2mm (tumor [4]; 500mg/kg, oral, control (topical) 5): 6
- Average number of tumor, 5-2mm (tumor [4]; 500mg/kg, oral, control (topical) 8): 5
- Average number of tumor, larger than 5mm (tumor [4]; 500mg/kg, oral, control (topical) 17): 2
- Number of animals in which tumor was developed (tumor [5]; [12]): 0
- Number of animals in which tumor was developed (tumor [5]; [13]): 5
- Number of animals in which tumor was developed (tumor [5]; croton oil + 200mg/day, oral, croton oil alone 10): 3
- Number of animals in which tumor was developed (tumor [5]; [14]): 2
- LD50 [3, 15]: > 1000 mg/kg
- LD50 [3, 16]: > 10000 mg/kg
- LD50 [3, 17]: > 10000 mg/kg
